Each structure is given as a SMILES string. *1 amine or outer side, *2 acyl side, *3 side chain or, on linkers, in order; H or OH if unused. Where a SMILES comes first, the peptide text is derived from it. Bridges are numbered along the chain shown (N, C = ends). [ ]: non-standard residue; d: D form. The star is where a group is joined. ξ: configuration not given here. Phe(4-CH2CH2COOH) = N[C@@H](Cc1ccc(CCC(=O)O)cc1)C(=O)O; Phe(4-CF3) = N[C@@H](Cc1ccc(C(F)(F)F)cc1)C(=O)O; Phe(4-CONH2) = NC(=O)c1ccc(C[C@H](N)C(=O)O)cc1; Phe(4-COOH) = N[C@@H](Cc1ccc(C(=O)O)cc1)C(=O)O; Bip = N[C@@H](Cc1ccc(-c2ccccc2)cc1)C(=O)O; Phe(3-Cl) = N[C@@H](Cc1cccc(Cl)c1)C(=O)O; Phe(3-Me) = Cc1cccc(C[C@H](N)C(=O)O)c1; Ethylenediamine = C(CN[*:2])N[*:1]; Val(3-OH) = CC(C)(O)[C@H](N)C(=O)O; hArg = N=C(N)NCCCC[C@H](N)C(=O)O; 4Pal = N[C@@H](Cc1ccncc1)C(=O)O; Cha = N[C@@H](CC1CCCCC1)C(=O)O; Cit = NC(=O)NCCC[C@H](N)C(=O)O; Gly(cPr) = N[C@H](C(=O)O)C1CC1; dCha = N[C@H](CC1CCCCC1)C(=O)O; Thr(3ξ) = CC(O)[C@H](N)C(=O)O; Carboxymethyl = O=C(O)C*; Orn = NCCC[C@H](N)C(=O)O; Pra = C#CC[C@H](N)C(=O)O; Dab = NCC[C@H](N)C(=O)O; Dap = NC[C@H](N)C(=O)O

The test deals with T1, human PD-1 / PD-L1-Ig binding on Jurkat cell line over-expressing human PD-1 (Jurkat-PD-1) (Homo sapiens, UniProt Q15116).
T1 construct: expressed in transfected cells; host or cells: Jurkat
Description: Jurkat-PD-1 Cell Binding High-Content Screening Assay (CBA). The format is cell-based. The following applies: Jurkat-PD-1 cells, PE-labeled PD-L1-Ig 20 nM final; read-out: Jurkat HPD1_PDL1 IC50. The essentials:
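Read-out: high-content imaging of PE-tagged PD-L1-Ig bound to Jurkat cells overexpressing human PD-1, after fixation with 4% paraformaldehyde and Hoechst 33342 nuclear staining. Ligand was used at 20 nM final for 1 hour, after a 2 h compound exposure at 37° C in serum-containing DMEM.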

T1 sequence (Q15116 25-288): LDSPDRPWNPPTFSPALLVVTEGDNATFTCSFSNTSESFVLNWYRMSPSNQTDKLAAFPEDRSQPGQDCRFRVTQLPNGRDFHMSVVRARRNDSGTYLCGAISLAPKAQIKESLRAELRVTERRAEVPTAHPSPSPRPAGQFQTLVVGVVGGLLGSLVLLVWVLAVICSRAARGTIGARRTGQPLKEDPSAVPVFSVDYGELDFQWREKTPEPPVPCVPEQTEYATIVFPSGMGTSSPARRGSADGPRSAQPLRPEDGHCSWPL

Regarding `C#CC[C@H](NC(=O)[C@H](CCN)NC(=O)[C@@H]1CSCC(=O)N[C@@H](CCCN)C(=O)N[C@@H](Cc2ccc(OCC(=O)O)cc2)C(=O)N[C@@H](CC(=O)O)C(=O)N[C@@H](Cc2cccc(C)c2)C(=O)N[C@@H](Cc2ccc(OCC(=O)O)cc2)C(=O)N[C@@H](Cc2ccc(-c3ccccc3)cc2)C(=O)N[C@@H](Cc2ccc(OCC(=O)O)cc2)C(=O)N[C@@H](CCCN)C(=O)N[C@H](CC(C)C)C(=O)N[C@@H](CCN)C(=O)N[C@@H](CC2CCCCC2)C(=O)N[C@@H](C(C)(C)O)C(=O)N[C@@H](CO)C(=O)N1)C(N)=O` [Compound 1853] ({CH2CO}-[Orn]Y(Carboxymethyl)D[Phe(3-Me)]Y(Carboxymethyl)[Bip]Y(Carboxymethyl)[Orn][dL][Dab][Cha][Val(3-OH)]SC[Dab][Pra]-NH2; thioether N-14), the IC50 came out at 6.9 nM. For `CC[C@H](C)[C@@H]1NC(=O)[C@H](Cc2ccc(-c3ccccc3)cc2)NC(=O)[C@H](C2CC2)NC(=O)[C@H](Cc2c[nH]c3ccccc23)NC(=O)[C@H](CC(=O)O)NC(=O)[C@H](Cc2ccc(OCC(=O)O)cc2)NC(=O)[C@H](CN)NC(=O)CSC[C@@H](C(=O)N[C@@H](C)C(N)=O)NC(=O)[C@H]([C@@H](C)O)NC(=O)[C@H](C(C)C)NC(=O)[C@H](CC2CCCCC2)NC(=O)[C@H](CCN)NC(=O)[C@@H](CC(C)C)NC(=O)[C@H](CCCN)NC1=O` [Compound 1724] ({CH2CO}-[Dap]Y(Carboxymethyl)DW[Gly(cPr)][Bip]I[Orn][dL][Dab][Cha]VTCA-NH2; thioether N-14) the value was 17.7 nM. As to `CC(C)C[C@@H]1NC(=O)[C@H](Cc2c[nH]c3ccccc23)NC(=O)[C@H](CC(=O)O)NC(=O)[C@H](Cc2ccc(CCC(=O)O)cc2)NC(=O)[C@H](Cc2ccc(OCC(=O)O)cc2)NC(=O)CSC[C@@H](C(=O)NCC(N)=O)NC(=O)[C@H](CO)NC(=O)[C@H](C(C)C)NC(=O)[C@H](CC(C)C)NC(=O)[C@H](CCN)NC(=O)[C@@H](CC(C)C)NC(=O)[C@H](CCCN)NC(=O)[C@H](C(C)C)NC(=O)[C@H](Cc2ccc(-c3ccccc3)cc2)NC1=O` [Compound 1256] ({CH2CO}-Y(Carboxymethyl)[Phe(4-CH2CH2COOH)]DWL[Bip]V[Orn][dL][Dab]LVSCG-NH2; thioether N-14), the IC50 was determined as 6.7 nM.

Take `Cc1cccc(C[C@@H]2NC(=O)[C@H](CC(=O)O)NC(=O)[C@H](Cc3ccc(OCC(=O)O)cc3)NC(=O)[C@H](CCCCNC(=N)N)NC(=O)CSC[C@@H](C(=O)N[C@@H](CCCCN)C(=O)N[C@@H](CO)C(N)=O)NC(=O)[C@H](CO)NC(=O)[C@H](C(C)C)NC(=O)[C@H](CC3CCCCC3)NC(=O)[C@H](CCN)NC(=O)[C@@H](CC(C)C)NC(=O)[C@H](CCCN)NC(=O)[C@H](CCCNC(N)=O)NC(=O)[C@H](Cc3ccc(-c4ccccc4)cc3)NC(=O)[C@H](C(C)C)NC2=O)c1` [Compound 2594] ({CH2CO}-[hArg]Y(Carboxymethyl)D[Phe(3-Me)]V[Bip][Cit][Orn][dL][Dab][Cha]VSCKS-NH2; thioether N-14): the IC50 is 13.1 nM. As for `CC(C)C[C@H]1NC(=O)[C@H](CN)NC(=O)[C@H](C(C)C)NC(=O)[C@H](Cc2ccc(-c3ccccc3)cc2)NC(=O)[C@H](C(C)C)NC(=O)[C@H](Cc2c[nH]c3ccccc23)NC(=O)[C@H](CC(=O)O)NC(=O)[C@H](Cc2ccncc2)NC(=O)[C@H](Cc2ccc(OCC(=O)O)cc2)NC(=O)CSC[C@@H](C(=O)NCC(N)=O)NC(=O)[C@H](CO)NC(=O)[C@H](C(C)C)NC(=O)[C@H](CC2CCCCC2)NC(=O)[C@H](CC(N)=O)NC1=O` [Compound 1456] ({CH2CO}-Y(Carboxymethyl)[4Pal]DWV[Bip]V[Dap][dL]N[Cha]VSCG-NH2; thioether N-14), the figure is 6.1 nM. For `Cc1cccc(C[C@@H]2NC(=O)[C@H](CC(=O)O)NC(=O)[C@H](Cc3ccc(OCC(=O)O)cc3)NC(=O)[C@H](CCCCNC(=N)N)NC(=O)CSC[C@@H](C(=O)N[C@@H](CO)C(=O)N[C@@H](CCCCN)C(N)=O)NC(=O)[C@H](CO)NC(=O)[C@H](C(C)C)NC(=O)[C@H](CC3CCCCC3)NC(=O)[C@H](CCN)NC(=O)[C@@H](CC(C)C)NC(=O)[C@H](CCCN)NC(=O)[C@H](CCCNC(N)=O)NC(=O)[C@H](Cc3ccc(-c4ccccc4)cc3)NC(=O)[C@H](C(C)C)NC2=O)c1` [Compound 2593] ({CH2CO}-[hArg]Y(Carboxymethyl)D[Phe(3-Me)]V[Bip][Cit][Orn][dL][Dab][Cha]VSCSK-NH2; thioether N-14) the value was 3.9 nM; for `Cc1cccc(C[C@@H]2NC(=O)[C@H](CC(=O)O)NC(=O)[C@H](Cc3ccc(OCC(=O)O)cc3)NC(=O)[C@H](C(C)O)NC(=O)CSC[C@@H](C(=O)N[C@@H](CO)C(=O)NCCN)NC(=O)[C@H](C(C)O)NC(=O)[C@H](C(C)(C)O)NC(=O)[C@H](CC3CCCCC3)NC(=O)[C@H](CCN)NC(=O)[C@@H](CC(C)C)NC(=O)[C@H](CCCN)NC(=O)[C@H](Cc3ccc(O)cc3)NC(=O)[C@H](Cc3ccc(-c4ccccc4)cc3)NC(=O)[C@H](Cc3ccc(C(N)=O)cc3)NC2=O)c1` (stereo partly drawn) [Compound 2663] ({CH2CO}-[Thr(3ξ)]Y(Carboxymethyl)D[Phe(3-Me)][Phe(4-CONH2)][Bip]Y[Orn][dL][Dab][Cha][Val(3-OH)][Thr(3ξ)]CS-Ethylenediamine; thioether N-14), 11.6 nM. As for `CC(C)C[C@H]1NC(=O)[C@H](CCCN)NC(=O)[C@H](CCCNC(N)=O)NC(=O)[C@H](Cc2ccc(-c3ccccc3)cc2)NC(=O)[C@H](C(C)C)NC(=O)[C@H](Cc2c[nH]c3ccccc23)NC(=O)[C@H](CC(=O)O)NC(=O)[C@H](Cc2ccc(C(F)(F)F)cc2)NC(=O)[C@H](CN)NC(=O)CSC[C@@H](C(=O)N[C@@H](C)C(N)=O)NC(=O)[C@H]([C@@H](C)O)NC(=O)[C@H](C(C)C)NC(=O)[C@H](CC2CCCCC2)NC(=O)[C@H](CCN)NC1=O` [Compound 2107] ({CH2CO}-[Dap][Phe(4-CF3)]DWV[Bip][Cit][Orn][dL][Dab][Cha]VTCA-NH2; thioether N-14), the figure is 44.7 nM; as for `CC(C)C[C@H]1NC(=O)[C@H](CCCN)NC(=O)[C@H](C(C)C)NC(=O)[C@H](Cc2ccc(-c3ccccc3)cc2)NC(=O)[C@H](C(C)C)NC(=O)[C@H](Cc2cccc(Cl)c2)NC(=O)[C@H](CC(=O)O)NC(=O)[C@H](Cc2ccncc2)NC(=O)[C@H](Cc2ccc(OCC(=O)O)cc2)NC(=O)CSC[C@@H](C(=O)N[C@@H](C)C(N)=O)NC(=O)[C@H]([C@@H](C)O)NC(=O)[C@H](C(C)C)NC(=O)[C@H](CC2CCCCC2)NC(=O)[C@H](CCN)NC1=O` [Compound 1570] ({CH2CO}-Y(Carboxymethyl)[4Pal]D[Phe(3-Cl)]V[Bip]V[Orn][dL][Dab][Cha]VTCA-NH2; thioether N-14), 18.4 nM. For the compound `CC(C)[C@@H]1NC(=O)[C@H](Cc2c[nH]c3ccccc23)NC(=O)[C@H](CC(=O)O)NC(=O)[C@H](Cc2ccc(C(=O)O)cc2)NC(=O)[C@H](Cc2ccncc2)NC(=O)CSC[C@@H](C(=O)N[C@@H](C)C(N)=O)NC(=O)[C@H]([C@@H](C)O)NC(=O)[C@H](C(C)C)NC(=O)[C@H](CC2CCCCC2)NC(=O)[C@H](CCN)NC(=O)[C@@H](CC2CCCCC2)NC(=O)[C@H](CCCN)NC(=O)[C@H](CCCNC(N)=O)NC(=O)[C@H](Cc2ccc(-c3ccccc3)cc2)NC1=O` [Compound 1640] ({CH2CO}-[4Pal][Phe(4-COOH)]DWV[Bip][Cit][Orn][dCha][Dab][Cha]VTCA-NH2; thioether N-14), the IC50 amounted to 25.7 nM.

What is called IC50 is the concentration at which inhibition is half-maximal.

For the origin of these results see patent publication US20250163104A1, “MACROCYCLIC IMMUNOMODULATORS” (priority 2021, published 2025).
